Data published in patent publication US20250255847A1, “[…]s: Novel Drugs for Triple Negative Breast Cancer” (SIMMARON RSEARCH INC, priority 2024, published 2025).

Target: T1, Y705P STAT3 and S727P STAT3 (Homo sapiens, UniProt P40763)
T1 construct: tissue Jackson Laboratories TM00096; host or cells: patient-derived TNBC tumour in NOD.Cg-Prkdcscid Il2rgtm1Wjl/SzJ mice
Assay: IHC and immunoblot of phospho-STAT3 in PDX tumors
Format: in vivo, mouse
Settings: tumor tissue; for expression of Y705PSTAT3 (IHC): p<0.0001 versus vehicle
Procedure: FIG. 15 illustrates an embodiment of the present invention and illustrates SIM 1 and 2 inhibited Y705P phosphorylation of STAT3 and the expressions of STAT3-dependent tumor supportive genes. (A) DAB immunostaining of Y705P STAT3 in tumor parenchyma of all three groups. (B) Quantitative analysis of Y705P STAT3-ir cells was performed by counting Y705P STAT3 cells in 15 different images, converting into a percent scale, and then plotting in a scatter histogram. On-way ANOVA followed by multiple comparison test indicated ****p<0.0001 versus control. (C) DAB immunostaining of S727P STAT3 followed by a (D) quantitative analysis of S727P STAT3-ir cells was performed in 15 different images and then plotted as a percent of total cells by a scatter histogram. On-way ANOVA represents no significance (NS) between groups. (E) Immunoblot analyses of Y705PSTAT3 (Rabbit […] antibody Cat #710093; Invitrogen), S727PSTAT3 (Mouse 1° antibody cat #MA5-15208; Invitrogen) followed by normalization with loading control β-actin (Mouse 1° antibody cat #MA1-744; Invitrogen). (F) A cDNA-based gene array of 66 STAT3-dependent tumor promoting genes were analyzed in TNBC tumors of vehicle-, SIM-1-, and SIM-2-treated mice. (G) A scatter plot summarized the gene array results. Based on the relative levels of expressions, gene levels were classified as low, moderate, and highly expressed. Results are confirmed after three different experiments.
Immunoblot assay. Immunoblot assay was performed as described before. Briefly, cell lysates were mixed with 5× Lamelli buffer, electrophoresed in 4-12% Tris-Glycine gel in tris-glycine SDS running buffer, transferred in a nitrocellulose membrane (P/N 926-31090; Li-Cor Biosciences, Lincoln, NE) in tris-glycine transfer buffer, incubated with appropriate primary antibodies overnight under shaking condition, labeled with IRDye700 and 800-tagged secondary antibodies for 2 hrs at room temperature in an orbital shaker, and then imaged in Odyssey Sa imager at 200 μm resolution.
Immunohistochemical (IHC) analyses. Tumor tissues were embedded in paraffin, cut at a thickness of 5 μm in Leica microtome, attached to a charged slide, dried in a dry bath at 37° C. for at least 48 hrs., and then progressed for IHC analysis. The IHC analysis was performed where, briefly, sections were deparaffinized by xylene and rehydrated by ethanol gradient (100%>70%>50%>20%; v/v) followed by complete rehydration by water. After that sections were blocked by Intercept® (TBS) Blocking Buffer (Licor Biosciences, Lincoln, NE) for 30 minutes, incubated with primary (1°) antibodies (Refer to Table 1) overnight at 4° C., washed with 1×TBST wash buffer for 3 times, incubated with biotinylated anti-mouse (1:200 dilution) or anti-rabbit (1:200 dilution) secondary (2°) antibodies (ThermoFisher), for 2 hrs., reacted with VECTASTAIN® Elite® ABC-HRP Kit, Peroxidase (Cat #PK-6100; Vector Laboratories) for 1 hr. as per manufacturer's recommendation, and finally stained with DAB chromogenic solution (Cat #SK-4100; Vector Laboratories).
This example provides a representative experiment that tested if SIM-1 and SIM-2 suppressed the activation of STAT3 in TNBC tumors. […] The result was further corroborated by the quantitative analysis (FIG. 15B), which indicated a significant downregulation of Y705PSTST3-ir cells (One-way ANOVA indicated ****p<0.0001 versus vehicle).
On the contrary, the expression of S727PSTAT3, another active isomer of STAT3, remained very low and unchanged across the treatment groups (FIG. 15C).
These genes include anti-apoptotic genes such as bcl-2, survivin, and bcl-xl; cell cycle progression markers such as cyclin D1, akt, and p21.

T1 sequence (P40763 2-770 Y705P/S727P limits assumed): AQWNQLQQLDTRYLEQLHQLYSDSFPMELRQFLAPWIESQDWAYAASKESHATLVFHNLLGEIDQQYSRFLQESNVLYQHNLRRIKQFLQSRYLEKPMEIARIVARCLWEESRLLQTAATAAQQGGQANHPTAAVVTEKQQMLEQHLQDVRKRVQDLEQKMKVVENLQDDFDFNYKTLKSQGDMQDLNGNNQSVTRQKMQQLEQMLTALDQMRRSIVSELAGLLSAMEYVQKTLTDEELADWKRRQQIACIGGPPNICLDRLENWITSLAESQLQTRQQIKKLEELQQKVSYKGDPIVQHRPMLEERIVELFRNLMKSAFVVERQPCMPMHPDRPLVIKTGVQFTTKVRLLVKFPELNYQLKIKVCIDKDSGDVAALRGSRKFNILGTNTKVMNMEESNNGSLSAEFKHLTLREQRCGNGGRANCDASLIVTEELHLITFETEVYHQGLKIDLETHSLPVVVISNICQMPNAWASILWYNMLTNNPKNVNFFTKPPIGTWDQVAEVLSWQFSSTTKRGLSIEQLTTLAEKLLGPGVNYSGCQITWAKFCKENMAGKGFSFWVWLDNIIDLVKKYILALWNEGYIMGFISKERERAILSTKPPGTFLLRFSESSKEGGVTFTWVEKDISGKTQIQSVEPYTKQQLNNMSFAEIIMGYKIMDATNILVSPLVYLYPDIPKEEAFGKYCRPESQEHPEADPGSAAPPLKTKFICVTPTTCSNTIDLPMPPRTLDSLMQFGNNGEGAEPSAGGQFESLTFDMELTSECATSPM

Row | SMILES | S727P STAT3 expressions (IHC) | Y705 phosphorylation of STAT3 (immunoblot) | expression of Y705PSTAT3 (IHC)
1 | CCOC(=O)c1c(NC(C)=O)sc2c(Cl)c(/C=N/O)ccc12 [SIM-2, ethyl 2-acetamido-7-chloro-6-(hydroxyiminomethyl)-1-benzothiophene-3-carboxylate] | did not show any change | strongly and selectively suppressed | completely ameliorated
2 | O=C(O)CCC(=O)NCc1csc2ccc(Cl)cc12 [SIM-1, 4-[(5-chloro-1-benzothiophen-3-yl)methylamino]-4-oxobutanoic acid] | did not show any change | strongly and selectively suppressed | significantly suppressed
